Here are results for ten molecules from ChEMBL document CHEMBL1201862, “PubChem BioAssay data set” (2004).

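Method: 48-hour compound exposure of cells in 96-well plates, five concentrations, linear interpolation of endpoints. The concentration for 50% growth inhibition is given as GI50.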 The source made the active and inactive calls. Rule as the data show it: active = GI50 up to about 1.1 µM and inactive = higher.

Test systems include RXF 393; RPMI-8226; 786-0; SR; SK-MEL-2; SW-620; IGROV-1; SK-OV-3; HT-29; KM12; TK-10; ACHN; PC-3; M14; CCRF-CEM; Malme-3M; OVCAR-8; NCI-H460; MOLT-4; UO-31.
Common to all, as to test: NCI tumour cell line growth inhibition, 48 h

In the case of `Clc1ccc(C2ON=C(c3ccccc3)N2C23CC4CC(CC(C4)C2)C3)cc1` (stereo unspecified), the GI50 with RXF 393, in the assay with RPMI-8226, in the assay with 786-0, in the assay on SR, in the assay on SK-MEL-2 and in the assay with SW-620 was > 10 µM (inactive) throughout. Further, the GI50 in the assay on IGROV-1, with SK-OV-3, with HT-29, with KM12, in the assay on TK-10 and with ACHN was > 10 µM (inactive) in each case. In addition, the GI50 in the assay with PC-3, in the assay on M14, in the assay with CCRF-CEM, with Malme-3M, in the assay on OVCAR-8 and with NCI-H460 was > 10 µM (inactive) each time. The GI50 in the assay on MOLT-4 is 9.66 µM (inactive).
In the case of `N=C1N(c2ccccc2)C(=S)/C(=N/c2ccccc2)N1c1ccccc1`, the GI50 with RXF 393 is 11.9 µM (inactive); in the assay with RPMI-8226, 2.31 µM (inactive); with 786-0 it was 9.68 µM (inactive); in the assay on SR it was 2.58 µM (inactive); with SK-MEL-2, 5.89 µM (inactive); with UO-31, 6.28 µM (inactive). For the same molecule, the GI50 in the assay on SW-620 is 4.27 µM (inactive); in the assay with IGROV-1, 12 µM (inactive); in the assay with SK-OV-3, 18.9 µM (inactive); in the assay on HT-29, 4.37 µM (inactive); in the assay on KM12 it was 14 µM (inactive); with TK-10, 15 µM (inactive). Moreover, the GI50 is 8.28 µM (inactive) with ACHN; 10.2 µM (inactive) in the assay on PC-3; 9.46 µM (inactive) in the assay with M14; 4.27 µM (inactive) with CCRF-CEM; 13.4 µM (inactive) in the assay on Malme-3M; 4.95 µM (inactive) in the assay on OVCAR-8. In addition, the GI50 in the assay on NCI-H460 is 11.5 µM (inactive); in the assay on MOLT-4, 1.29 µM (inactive).
On to `COc1ccc2c(c1)/C(=C\c1c(Cl)[nH]c3ccccc13)C(=O)N2`, for which the GI50 in the assay on RXF 393 was 2.88 µM (inactive); in the assay with RPMI-8226, 3.61 µM (inactive); with 786-0 it was 4.49 µM (inactive); in the assay on SR, 2.03 µM (inactive); with SK-MEL-2, 4.21 µM (inactive); in the assay with UO-31, 6.78 µM (inactive). Further, the GI50 in the assay on SW-620 was 3.4 µM (inactive); in the assay with IGROV-1, 1.21 µM (inactive); in the assay on SK-OV-3, 2.97 µM (inactive); in the assay on HT-29, 2.14 µM (inactive); with KM12, 3.05 µM (inactive); in the assay on TK-10 it was 6.9 µM (inactive). Besides, the GI50 in the assay with ACHN was 5.25 µM (inactive); in the assay with PC-3, 4.9 µM (inactive); with M14, 4.08 µM (inactive); with CCRF-CEM, 3.21 µM (inactive); with Malme-3M, 5.92 µM (inactive); in the assay with OVCAR-8 it was 11.1 µM (inactive). Further, the GI50 was 3.98 µM (inactive) with NCI-H460 and 5.33 µM (inactive) with MOLT-4.
Regarding `Cc1ccc(Nc2nc(=S)[nH]c3[nH]ncc23)cc1`, the GI50 was > 100 µM (inactive) with RXF 393; 24 µM (inactive) with RPMI-8226; > 100 µM (inactive) in the assay with 786-0; 36.1 µM (inactive) in the assay on SR; 82.4 µM (inactive) in the assay with SK-MEL-2; 78 µM (inactive) with UO-31. Besides, the GI50 was > 100 µM (inactive) with SW-620; 30.1 µM (inactive) in the assay on IGROV-1; > 100 µM (inactive) in the assay with SK-OV-3; 42.5 µM (inactive) with HT-29; 31 µM (inactive) with KM12; 81.1 µM (inactive) with TK-10. Also, the GI50 in the assay with ACHN was 48.4 µM (inactive); with PC-3, 51.2 µM (inactive); in the assay with M14, > 100 µM (inactive); in the assay with CCRF-CEM it was 1.39 µM (inactive); with Malme-3M, > 100 µM (inactive); in the assay with OVCAR-8 it was > 100 µM (inactive). Moreover, the GI50 in the assay on NCI-H460 was 64.6 µM (inactive); with MOLT-4, > 100 µM (inactive).
As for `CCSc1c2cc(OC)ccc2nc2ccc(OC)cc12`, the GI50 with RXF 393 is 11.6 µM (inactive); in the assay with RPMI-8226, 4.24 µM (inactive); in the assay on 786-0 it was 16 µM (inactive); with SR, 2.76 µM (inactive); in the assay with SK-MEL-2, 18.8 µM (inactive); with UO-31, 12.6 µM (inactive). The GI50 with SW-620 is 17.7 µM (inactive); with IGROV-1 it was 18.3 µM (inactive); in the assay on SK-OV-3 it was 23.3 µM (inactive); in the assay on HT-29, 17.8 µM (inactive); in the assay with KM12 it was 11.2 µM (inactive); in the assay on TK-10, 9.64 µM (inactive). The GI50 is 18.6 µM (inactive) in the assay on ACHN; 10.7 µM (inactive) in the assay on PC-3; 11.9 µM (inactive) with M14; 5.56 µM (inactive) with CCRF-CEM; 13.7 µM (inactive) with Malme-3M; 16.4 µM (inactive) in the assay with OVCAR-8. Besides, the GI50 in the assay with NCI-H460 was 13.2 µM (inactive); with MOLT-4, 3.22 µM (inactive).
On to `Cc1ccc2nc(-c3ccc(C(C)(C)C)cc3)oc(=O)c2c1`, for which the GI50 was 36.5 µM (inactive) in the assay with RXF 393; 21 µM (inactive) in the assay with RPMI-8226; 25.1 µM (inactive) in the assay with 786-0; 21.2 µM (inactive) in the assay with SR; 26.7 µM (inactive) in the assay on SK-MEL-2; 26.6 µM (inactive) with UO-31. Besides, the GI50 in the assay with SW-620 was 26.3 µM (inactive); in the assay on IGROV-1, 23.1 µM (inactive); in the assay with SK-OV-3, 22.9 µM (inactive); in the assay with HT-29, 19.6 µM (inactive); in the assay on KM12 it was 7.38 µM (inactive); in the assay on TK-10, 39.7 µM (inactive). The GI50 with ACHN was 12.3 µM (inactive); in the assay on PC-3, 20.7 µM (inactive); with M14 it was 23.8 µM (inactive); in the assay with CCRF-CEM, 20.7 µM (inactive); in the assay with Malme-3M, 21.6 µM (inactive); with OVCAR-8, 16.9 µM (inactive). The GI50 in the assay with NCI-H460 is 16.2 µM (inactive); with MOLT-4, 17 µM (inactive).
Turning to `CSC(=S)OC1C(CO[Si](C)(C)C(C)(C)C)OC2OC(C)(C)OC21` (stereo unspecified), the GI50 is 20.6 µM (inactive) in the assay with RXF 393; 16.3 µM (inactive) in the assay with RPMI-8226; 19.5 µM (inactive) with 786-0; 13.7 µM (inactive) in the assay with SR; 15 µM (inactive) in the assay with SK-MEL-2; 17.7 µM (inactive) in the assay on UO-31. Also, the GI50 with SW-620 was 17.3 µM (inactive); with IGROV-1, 18.3 µM (inactive); in the assay on SK-OV-3, 20.2 µM (inactive); in the assay on HT-29 it was 11.4 µM (inactive); in the assay with KM12, 15.6 µM (inactive); in the assay with TK-10 it was 20.5 µM (inactive). The GI50 was 17.1 µM (inactive) with ACHN; 15.8 µM (inactive) in the assay with PC-3; 47 µM (inactive) in the assay with M14; 16.7 µM (inactive) in the assay on CCRF-CEM; 14.8 µM (inactive) in the assay with Malme-3M; 27.3 µM (inactive) in the assay with OVCAR-8. Moreover, the GI50 with NCI-H460 was 17 µM (inactive); in the assay on MOLT-4, 15.3 µM (inactive).
Turning to `C=C(C)C(=O)OC1C(C(C)CCCO)=C(CO)CC2OC(=O)C(=C)C21` (stereo unspecified), the GI50 in the assay with RXF 393 is 13.8 µM (inactive); with RPMI-8226, 17.1 µM (inactive); in the assay with 786-0, 4.13 µM (inactive); in the assay with SR it was 14.5 µM (inactive); in the assay with SK-MEL-2 it was 20.5 µM (inactive); in the assay on SW-620, 14.7 µM (inactive). For the same molecule, the GI50 in the assay with IGROV-1 was 15.6 µM (inactive); in the assay with SK-OV-3, 29 µM (inactive); in the assay with HT-29, 18.3 µM (inactive); in the assay with KM12, 12.6 µM (inactive); with TK-10, 30.3 µM (inactive); with ACHN, 24.1 µM (inactive). Also, the GI50 in the assay on PC-3 was 24.4 µM (inactive); in the assay with M14, 16.3 µM (inactive); in the assay with CCRF-CEM, 12.6 µM (inactive); in the assay on Malme-3M it was 0.509 µM (active); in the assay with OVCAR-8, 18.8 µM (inactive); in the assay with NCI-H460, 16.4 µM (inactive). Further, the GI50 in the assay on MOLT-4 is 18.4 µM (inactive).
Consider `O=C(O)c1cc2cc(OCc3ccccc3)ccc2[nH]1`, for which the GI50 in the assay on RXF 393 is > 100 µM (inactive); in the assay on RPMI-8226 it was > 100 µM (inactive); with 786-0, > 100 µM (inactive); in the assay with SR, > 100 µM (inactive); in the assay with SK-MEL-2 it was 61.7 µM (inactive); with UO-31 it was > 100 µM (inactive). For the same molecule, the GI50 with SW-620, in the assay on IGROV-1, with SK-OV-3, with KM12, in the assay with TK-10 and in the assay with ACHN was > 100 µM (inactive) each time. Besides, the GI50 in the assay with PC-3 is > 100 µM (inactive); in the assay with M14, > 100 µM (inactive); in the assay on CCRF-CEM, > 100 µM (inactive); in the assay with Malme-3M it was 0.116 µM (active); with OVCAR-8, > 100 µM (inactive); in the assay on NCI-H460 it was > 100 µM (inactive). In addition, the GI50 in the assay with MOLT-4 is > 100 µM (inactive).
As for `CCC1CCN/C(=N/S(=O)(=O)c2cc(C)c(Cl)cc2S)N1` (stereo unspecified), the GI50 in the assay with RXF 393 was 76.2 µM (inactive); in the assay with RPMI-8226, 24.2 µM (inactive); with 786-0 it was 33.5 µM (inactive); in the assay with SR it was 35.4 µM (inactive); in the assay with SK-MEL-2, 26.4 µM (inactive); in the assay on UO-31, 36.3 µM (inactive). The GI50 was 28.7 µM (inactive) with SW-620; 24.2 µM (inactive) in the assay with IGROV-1; 40.5 µM (inactive) in the assay on SK-OV-3; 30.1 µM (inactive) in the assay on HT-29; 37.7 µM (inactive) with TK-10; 34.6 µM (inactive) in the assay with ACHN. In addition, the GI50 in the assay on PC-3 is 50.2 µM (inactive); with M14, 35.7 µM (inactive); in the assay on CCRF-CEM, 25.9 µM (inactive); in the assay on Malme-3M, 37.2 µM (inactive); with OVCAR-8, 19.8 µM (inactive); in the assay on NCI-H460 it was 8.2 µM (inactive). In addition, the GI50 in the assay on MOLT-4 is 21.7 µM (inactive).
